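Interpolation was linear, between the two tested concentrations surrounding the appropriate level; five concentrations were tested over 48 hours in 96-well plates. The concentration for 50% growth inhibition is given as GI50.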 Active and inactive are the calls of the source. Cut-off read from the data, not from the text of the source: active = GI50 up to about 1.1 µM and inactive = higher.
Legend:
Test in all cases: DTP human tumour cell line panel, 48 h
DLD-1 = tested on: DLD-1
XF498 = tested on: XF498
LXFL 529 = tested on: LXFL 529
SNB-78 = tested on: SNB-78
KM-20L2 = tested on: KM-20L2
DMS-273 = tested on: DMS-273
RXF 631 = tested on: RXF 631
HOP-18 = tested on: HOP-18
MDA-N = tested on: MDA-N

Measured: GI50

CCCCCNC(=O)CCCCCCCCCCCNC(=O)CCCCCCCCCCN1C=CC(=CC=C2C=CC(=O)C=C2)C=C1
inactive: DLD-1 > 100 µM | XF498 10.3 µM | LXFL 529 5.86 µM | SNB-78 15.3 µM | KM-20L2 > 100 µM | DMS-273 23.8 µM | RXF 631 > 100 µM

O=C(Nc1ccc([N+](=O)[O-])cc1C(=O)O)c1ccc([N+](=O)[O-])cc1
inactive: DLD-1 35.4 µM | XF498 23.3 µM | LXFL 529 24.4 µM | KM-20L2 18.4 µM | DMS-273 31.2 µM | RXF 631 21.1 µM

CC1CCCc2c(CC3CC(=O)NC(=O)C3)n[nH]c21 (stereo unspecified)
inactive: DLD-1 > 100 µM | XF498 > 100 µM | LXFL 529 > 100 µM | SNB-78 > 100 µM | KM-20L2 > 100 µM | DMS-273 > 100 µM | HOP-18 > 100 µM | RXF 631 > 100 µM

Cc1oc2c(C)c3oc(=O)cc(C)c3cc2c1CN
inactive: DLD-1 43.3 µM | XF498 20.7 µM | LXFL 529 37.5 µM | SNB-78 53.5 µM | KM-20L2 34.4 µM | HOP-18 > 100 µM | RXF 631 29.1 µM

COc1cc(-c2ccccc2)c(OC)cc1CCl
inactive: DLD-1 > 100 µM | XF498 > 100 µM | SNB-78 > 100 µM | KM-20L2 > 100 µM | DMS-273 > 100 µM | HOP-18 > 100 µM | RXF 631 > 100 µM

C/C(=N\NC(N)=S)c1cc(C)c(C)cc1C
inactive: DLD-1 53.3 µM | XF498 23 µM | LXFL 529 27.7 µM | SNB-78 > 100 µM | KM-20L2 35.6 µM | DMS-273 19.3 µM | HOP-18 62.8 µM | RXF 631 57.7 µM

CC#CC#C/C=C1\C=CC2(OC=CC2OC(C)=O)O1 (stereo unspecified)
inactive: DLD-1 16.5 µM | XF498 21.3 µM | LXFL 529 16.3 µM | SNB-78 10.4 µM | KM-20L2 3.51 µM | DMS-273 20.1 µM | MDA-N 15.8 µM | RXF 631 14.5 µM

C=C1C2CC(OC(C)=O)C3(C)C(c4ccoc4)OC(=O)[C@@H](O)[C@]13OC1C[C@H](OC(C)=O)C(C)(C)[C@H](CC(=O)OC)[C@]12C (stereo partly specified)
inactive: LXFL 529 > 100 µM | SNB-78 > 100 µM | KM-20L2 > 100 µM | DMS-273 > 100 µM | HOP-18 > 100 µM | RXF 631 > 100 µM

C/C(=N\N)C(CN1CCCCC1)C(c1ccccc1)c1c(O)c2ccccc2oc1=O (stereo unspecified)
inactive: DLD-1 > 100 µM | XF498 > 100 µM | LXFL 529 > 100 µM | SNB-78 > 100 µM | KM-20L2 > 100 µM | DMS-273 > 100 µM | RXF 631 > 100 µM

O=[N+]([O-])c1ccc(CNC2=NNS(=O)(=O)c3ccccc32)cc1
inactive: DLD-1 > 100 µM | XF498 > 100 µM | LXFL 529 36.1 µM | SNB-78 > 100 µM | KM-20L2 > 100 µM | DMS-273 > 100 µM | RXF 631 > 100 µM

Source: ChEMBL document CHEMBL1201862, “PubChem BioAssay data set” (2004)
